According to publication PMC9663854, “AadA36, a novel chromosomal aminoglycoside nucleotidyltransferase from a clinical isolate of Providencia stuartii” (Frontiers in Microbiology, 2022):

System: T1, AadA36
T1 construct: N-terminal His-tag removed with thrombin
Test: coupled NADPH assay at […] nm (UDP-glucose pyrophosphorylase, phosphoglucomutase, glucose-6-phosphate dehydrogenase), Michaelis-Menten fit
Type: biochemical, Providencia stuartii
Conditions: 50 mM HEPES pH 7.5, 10 mM MgCl2, 1 mM ATP, 0.2 mM DTT, substrate 5-150 μM

| Structure (SMILES) | Km |
| --- | --- |
| CN[C@@H]1[C@H](O)[C@H](NC)[C@H]2O[C@@]3(O)C(=O)C[C@@H](C)O[C@H]3O[C@@H]2[C@H]1O [spectinomycin] | 49.1 ± 12.8 µM |
| [H]/N=C(/N)N[C@H]1[C@H](O)[C@@H](O)[C@H](O[C@@H]2O[C@@H](C)[C@](O)(C=O)[C@H]2O[C@@H]2O[C@@H](CO)[C@H](O)[C@@H](O)[C@@H]2NC)[C@@H](N/C(N)=N\[H])[C@@H]1O [streptomycin] | 59.5 ± 14.1 µM |
